Data as given in patent publication US20240165129A1, “METHODS OF TREATING PAIN AND DEPRESSION” (priority 2022, published 2024).
Entries after “also recorded” stand apart in the source; their conditions may differ. Like-named read-outs stand apart in the source and are kept apart here.

What was measured:
[1] = target: T1, heteromeric ASIC1a/2a channels (UniProt P78348+Q62962); conditions: Triol 10 μM, PcTx-1 insensitive cells, pH 6.0, n=4
T1 sequence (P78348 1-528): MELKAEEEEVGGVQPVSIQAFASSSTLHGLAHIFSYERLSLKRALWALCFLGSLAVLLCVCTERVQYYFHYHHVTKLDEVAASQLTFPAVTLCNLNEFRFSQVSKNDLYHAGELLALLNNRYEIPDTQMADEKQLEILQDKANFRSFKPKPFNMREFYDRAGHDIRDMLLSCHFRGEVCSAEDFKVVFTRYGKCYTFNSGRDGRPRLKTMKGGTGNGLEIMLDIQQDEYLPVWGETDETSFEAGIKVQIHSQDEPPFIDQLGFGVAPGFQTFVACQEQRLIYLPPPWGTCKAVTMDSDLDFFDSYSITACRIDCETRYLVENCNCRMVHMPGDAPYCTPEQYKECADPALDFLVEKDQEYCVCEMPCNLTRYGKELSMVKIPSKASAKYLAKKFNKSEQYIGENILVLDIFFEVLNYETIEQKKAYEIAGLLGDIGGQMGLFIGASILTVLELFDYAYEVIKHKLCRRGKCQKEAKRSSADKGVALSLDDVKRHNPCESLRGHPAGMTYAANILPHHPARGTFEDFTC
T1 sequence (Q62962 1-512): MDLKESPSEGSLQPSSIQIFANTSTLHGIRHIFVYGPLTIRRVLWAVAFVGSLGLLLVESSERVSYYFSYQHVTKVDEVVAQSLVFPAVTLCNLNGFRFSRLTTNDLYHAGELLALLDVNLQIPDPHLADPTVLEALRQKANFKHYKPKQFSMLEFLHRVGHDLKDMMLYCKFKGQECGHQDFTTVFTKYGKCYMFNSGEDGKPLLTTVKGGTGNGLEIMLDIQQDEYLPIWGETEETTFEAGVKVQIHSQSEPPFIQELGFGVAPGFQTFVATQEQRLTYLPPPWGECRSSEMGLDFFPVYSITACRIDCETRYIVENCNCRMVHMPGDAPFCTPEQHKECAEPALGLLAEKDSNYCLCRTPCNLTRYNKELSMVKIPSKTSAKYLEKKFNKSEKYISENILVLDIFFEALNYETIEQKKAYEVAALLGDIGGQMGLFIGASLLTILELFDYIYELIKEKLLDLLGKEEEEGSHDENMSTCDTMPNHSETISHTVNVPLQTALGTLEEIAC
Method: (§1) ASIC currents were recorded using patch-clamp techniques. Pipette solution contained (mM): 140 CsF, 1 CaCl2, 2 MgCl2, 11 EGTA, 2 tetraethylammonium chloride, 10 HEPES and 4 MgATP, pH 7.3 adjusted with CsOH, 290-300 mOsm. Extracellular Fluid (ECF) contained (mM): 140 NaCl, 5.4 KCl, 2 CaCl2, 1 MgCl2, 10 glucose, and 10 HEPES (320-330 mOsm). A multi-barrel perfusion system (SF-77 Warner Instruments, Hamden, CT) was used to obtain a rapid exchange of ECFs. Currents were recorded with Axopatch 200B amplifier, filtered at 2 kHz, and digitized at 5 kHz using Digidata 1332A. ASIC currents were induced by rapid perfusion of the cells with acidic ECF for 4 seconds. Unless otherwise stated, cells were clamped at a holding potential of −60 mV. […] Data were excluded for statistical analysis when access resistance was >10 MΩ or leak current was >100 pA.
Only the GFP-positive cells were recorded. The GFP-positive CHO-1a cells may express a mix of homomeric ASIC1a, ASIC2a, or heteromeric ASIC1a/2a channels. Since homomeric ASIC2a channels are not activated at pH 6.0 37, the ASIC currents activated at pH 6.0 might be due to the activation of ASIC1a or ASIC1a/2a channels.

[2] = system: primary cultured mouse cortical neurons; assay: Acidosis-induced neuronal injury, FDA/PI staining; conditions: 1 and 10 μM, pH 6.0 for 1.5 h, 24 h
[3] = system: mice (depression-like behavior); assay: Sucrose preference and chronic (unpredictable) mild stress; type: in vivo, mouse
Method: Sucrose preference is assessed in individually housed, stressed and unstressed mice. Briefly, two bottles (one 8% sucrose and one water) are placed in each cage for 3 d; 2 d to habituate and 1 d to assess sucrose preference. The locations of the bottles are rotated each 24-h period. At the beginning and end of the final 12-h period both bottles are weighed, and sucrose preference is defined as sucrose solution consumed/total liquid consumed×100%. Unstressed mice only undergo the 3 d sucrose preference assessment. Stressed mice also undergo 6 d of unpredictable stressors in the following order: restraint (3 h), wetted bedding (12 h), restraint (3 h), 45° angle cage tilt (12 h), paired housing with an unfamiliar mouse (1 h), exposure to a predator odor (1 h) (trimethylthiazoline, Pherotech International). Sucrose preference is then assessed during the final overnight period as described above.

[4] = system: mice (depression-like behavior); assay: Forced swim test; type: in vivo, mouse
[5] = system: mice (depression-like behavior); assay: Tail suspension test; type: in vivo, mouse
Method: This test is performed by the Tennessee Mouse Genome Consortium (tnmouse.org/neuromutagenesis/behavioral). Mice are suspended by the tail from a ledge ˜60 cm from the ground with adhesive tape. Immobility is defined as the absence of movement and is scored over a 6—min trial.

homomeric ASIC2a = target: T2, homomeric ASIC2a (Rattus norvegicus, UniProt Q62962); assay: Patch-clamp recording of ASIC2a currents in CHO cells with transient expression; conditions: 10 μM, pH drop 7.4 to 4.5, n=4-5
T2 sequence (Q62962 1-512): T1 sequence (Q62962 1-512)
Method: (§2) Chinese hamster ovary (CHO) cells were cultured in F12-K medium (Invitrogen) plus 10% fetal bovine serum, 50 units/nal penicillin, and 50 μg/m1 streptomycin. At ˜50% confluence, CHO cells were co-transfected with cDNAs for rat ASIC1β, ASIC2a, or ASIC3, and that for GFP. GFP-positive cells were used for electrophysiological recordings 24-72 h after transient transfection.
as §1
(§3) Therefore, the study used pH 6.0 and 4.5 to activate ASIC1β and ASIC2a currents, respectively. […]

[6] = system: corticosterone-induced depression-like behaviors in mice; assay: Mouse model of depression induced by repeated corticosterone injections; type: in vivo; conditions: 12 mg/kg i.p. daily, corticosterone 40 mg/kg i.p. for 21 days
Method: Based on the fact that Triol inhibits ASIC1a, Triol can have anti-depression activity. […] A mouse model of depression induced by repeated corticosterone injections is used. Depression-like behaviors are induced by repeated administration of corticosterone (40 mg/kg, i.p.), once a day for 21 days in mice. Mice arerandomly assigned to 4 experimental groups (n=10/group). Control, corticosterone, corticosterone +Vehicle (20% HP-β-CD) and corticosterone+ Triol (12 mg/kg, i.p.). Triol is administered daily. The sucrose consumption test, open-field test (OFT), tail suspension test (TST), and forced swimming test (FST) are used to evaluate the therapeutic effect of Triol.

homomeric ASIC3 = target: T3, homomeric ASIC3 (Rattus norvegicus, UniProt O35240); assay: Patch-clamp recording of ASIC3 currents in CHO cells with transient expression
T3 sequence (O35240 1-533): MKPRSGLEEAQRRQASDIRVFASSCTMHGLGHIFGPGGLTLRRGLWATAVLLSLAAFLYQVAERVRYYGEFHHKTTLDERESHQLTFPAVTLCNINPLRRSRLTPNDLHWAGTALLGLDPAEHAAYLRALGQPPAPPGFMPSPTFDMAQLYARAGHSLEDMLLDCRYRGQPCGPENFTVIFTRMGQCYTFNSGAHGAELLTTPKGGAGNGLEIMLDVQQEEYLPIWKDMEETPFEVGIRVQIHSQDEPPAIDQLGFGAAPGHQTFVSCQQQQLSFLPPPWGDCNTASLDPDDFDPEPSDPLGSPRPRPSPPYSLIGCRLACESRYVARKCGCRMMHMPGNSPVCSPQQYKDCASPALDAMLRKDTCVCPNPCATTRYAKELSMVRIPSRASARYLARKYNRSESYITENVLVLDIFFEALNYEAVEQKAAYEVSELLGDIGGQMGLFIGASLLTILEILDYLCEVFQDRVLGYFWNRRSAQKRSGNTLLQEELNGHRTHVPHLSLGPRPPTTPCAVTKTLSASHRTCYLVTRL
Method: as §2, §1, §3

mice brain after MCAO = conditions: mouse, in vivo

CC(C)CCC[C@@H](C)[C@H]1CC[C@H]2[C@@H]3C[C@@H](O)[C@@]4(O)C[C@@H](O)CC[C@]4(C)[C@H]3CC[C@]12C [Triol, cholestane-3β, 5α, 6β-triol]
effect on PcTx-1 insensitive ASIC currents [1]: inhibited these currents | death rate of cortical neurons (PI staining) [2]: decrease death rate | survival rate of cortical neurons (FDA staining) [2]: increase survival rate | depression-like behavior following unpredictable mild stress [3]: decreased levels of depression-like behavior | depression-like behavior in the forced swim test [4]: decreased levels of depression-like behavior | depression-like behavior in the tail suspension test [5]: decreased levels of depression-like behavior | effect on ASIC2a currents (homomeric ASIC2a): no significant effect | antidepressant activity (sucrose consumption, OFT, TST, FST) [6]: alleviating corticosterone-induced depression-like behaviors | inhibition at 10 µM (homomeric ASIC3; pH 5.5, read-out: inhibition of ASIC3 peak current component): ~23% | inhibition at 10 µM (homomeric ASIC3; pH 5.5, read-out: inhibition of ASIC3 sustained current component): ~54% | infarct volume, Triol in the presence of PcTx-1 (mice brain after MCAO): no additional reduction | protection against ischemic brain injury (mice brain after MCAO): didn't show additional protection; also recorded: A similar result; also recorded: significant protection
